Experimental data reported in patent US20250241906A1, “ANABOLIC DRUGS STIMULATING TYPE II COLLAGEN PRODUCTION FROM CHONDROCYTES OR THEIR PROGENITORS” (UNIVERSITY OF CENTRAL FLORIDA RESEARCH FOUNDATION, INC., priority 2022, published 2025).
Entries after “also recorded” stand apart in the source; their conditions may differ. Where two headings read alike, the source gives them in different places.

Tests used:
[1] = tested on: kinase phosphorylation in primary human chondrocytes; assay: Phospho-kinase array on primary human chondrocyte lysate; assay type: cell-based; conditions: donor 2, 24 h, vs DMSO
Method: Phospho-kinase Array. Primary human chondrocytes were seeded at 5×10^6 cells (2×10 cm adherent dish, Corning) in growth media and allowed to adhere overnight. Growth media was replaced with chondrogenic media supplemented with 1 ng/mL TGFβ1 with DMSO or with drug […]. Cells were treated for 24 h before processing according to the manufacturer's protocol (ARY003C, R&D Systems). This phospho-kinase array contains capture antibodies to measure relative levels of phosphorylation of 37 kinases on a nitrocellulose membrane. Signal intensity was quantified using ImageJ.

Plasmodium falciparum = conditions: cited from earlier work
HuCol2gLuc aggregates [2] = assay: Metabolic assay (resazurin) on HuCol2gLuc aggregates; assay type: cell-based, human; conditions: day 22
Method: Metabolic Assay (Resazurin). Metabolic activity was assessed on day 22 by adding resazurin to a final concentration of 50 μM to each well and incubating at physioxia for 3 hours. After three hours, media (120 μl) was transferred to a 96-well black plate (Greinerbio) and fluorescence read at an excitation of 535 nm and emission at 588 nm. At OT-2 (Opentrons) python-coded robotic pipette was used to add resazurin to cell plates as well as to transfer medium to black plates.

HuCol2gLuc aggregates [3] = assay: Biochemical assays (DNA, GAG, total collagen) on HuCol2gLuc aggregates; assay type: cell-based, human
Method: Biochemical Assays. Aggregates frozen at day 22, were thawed with PBS, and digested with Papain (25 μg/ml, Sigma, P4762, in 2 mM cysteine; 50 mM sodium phosphate; 2 mM EDTA at a pH 6.5, 100 μl) at 65° C. overnight. Plates were sealed with a qPCR adhesive sealing film (USA Scientific), a silicone sheet, and steel plates clamped to the plate to prevent evaporation during digestion. Half of the digest (50 μl) was transferred to another plate and frozen for hydroxyproline assessment. In the remaining digest, papain was inactivated with 0.1M sodium hydroxide (NaOH, 50 μl) followed by NaOH neutralization (100 mM Na2HPO4, 0.1 N HCL, pH 1.82, 50 μl). To quantitate DNA content, samples of the neutralized digest (20 μl) were combined with buffered Hoechst dye (#33258, 667 ng/ml, phosphate buffer pH 8, 100 μl) and fluorescence measured at an excitation of 365 nm and emission of 460 nm. For GAG assessment, 1,9-Dimethyl-methylene blue solution (195 μl) was added to neutralized digests (5 μl) and absorbance measured at 595 nm and 525 nm. Readings were corrected by subtracting 595 nm reading from 525 nm. Micrograms of DNA and GAG were calculated using a Calf thymus DNA standard (Sigma) or Chondroitin Sulfate standard (Seikagaku Corp.), respectively.
For hydroxyproline (HP) quantification, the frozen digests (50 μl) were thawed at room temperature and incubated overnight at 105° C. with 6M hydrochloric acid (200 μl). Plates were sealed to prevent evaporation. Samples were then dried at 70° C. overnight with a hydroxyproline standard (Sigma). Copper sulfate (0.15 M, 10 μl) and NaOH (2.5 M, 10 μl) were added to each well and incubated at 50° C. for 5 minutes, followed by hydrogen peroxide (6%, 10 μl) for 10 minutes. Sulfuric acid (1.5 M, 40 μl) and Ehrlich's reagent (20 μl) were added and samples incubated at 70° C. for 15 minutes. Absorbance was measured at 505 nm. Micrograms of hydroxyproline were calculated using the standard. Total collagen was calculated by the following formula (μg of HP×7.6=μg Total Collagen).

KB cell line = conditions: cited from earlier work
butyrylcholinesterase = butyrylcholinesterase (Homo sapiens, UniProt P06276); conditions: cited from earlier work
Sequence of butyrylcholinesterase (P06276 29-602): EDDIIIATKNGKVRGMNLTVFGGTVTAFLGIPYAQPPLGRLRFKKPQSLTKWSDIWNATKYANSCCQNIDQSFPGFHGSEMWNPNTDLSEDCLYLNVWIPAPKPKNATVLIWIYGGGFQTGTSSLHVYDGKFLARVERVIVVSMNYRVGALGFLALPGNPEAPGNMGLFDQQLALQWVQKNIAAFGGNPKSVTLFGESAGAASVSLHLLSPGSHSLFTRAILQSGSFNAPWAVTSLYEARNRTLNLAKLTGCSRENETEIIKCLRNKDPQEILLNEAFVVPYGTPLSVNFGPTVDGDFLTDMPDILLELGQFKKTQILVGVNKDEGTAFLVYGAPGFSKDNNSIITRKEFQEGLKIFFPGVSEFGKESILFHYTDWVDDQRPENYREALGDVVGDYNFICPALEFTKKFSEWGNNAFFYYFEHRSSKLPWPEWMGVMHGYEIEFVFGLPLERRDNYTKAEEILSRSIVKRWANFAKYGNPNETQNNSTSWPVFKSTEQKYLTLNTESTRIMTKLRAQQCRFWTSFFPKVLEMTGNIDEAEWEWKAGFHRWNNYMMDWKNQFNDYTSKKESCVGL

[4] = tested on: type II collagen promoter (COL2A1-Gaussia luciferase) in primary human chondrocytes; assay: HuCol2gLuc 3D aggregate type II collagen promoter-driven Gaussia luciferase assay; assay type: cell-based; conditions: for stimulation of type II collagen production in the screen of natural products: NCI Natural Products Set V, 5 μM continuously, 22-day assay; for cumulative luminescence: validation
Method: Chondrogenic Culture. Human COL2A1-GLuc or uninfected cells were thawed and seeded in growth media on synoviocyte matrix at 6,000 cells/cm^2 and expanded to 90-100% confluence in physioxia. Cells were trypsinized (0.25% Trypsin/EDTA; Corning), resuspended in growth media (for monolayer culture) or chondrogenic differentiation media for 3D aggregates (93.24% High-Glucose DMEM (Gibco), 1% dexamethasone 10^−5M (Sigma), 1% ITS+premix (Becton-Dickinson), 1% Glutamax (Hyclone), 1% 100 mM Sodium Pyruvate (Hyclone), 1% MEM Non-Essential Amino Acids (Hyclone), 0.26% L-Ascorbic Acid Phosphate 50 mM (Wako), 0.5% Fungizone (Life Technologies) with TGF-β1 (Peprotech) and seeded as described below.
Generation and Maintenance of 3D aggregates. To generate 3D aggregates, cells were seeded at 50,000 cells per well (in 96-well cell repellent u-bottom plates, GreinerBio) and then centrifuged at 500 RCF, 5 min. For the initial drug screen, aggregates were cultured in basal chondrogenic media (1 ng/ml TGF-β1) alone, with DMSO (vehicle control) or 5 μM of the drug compounds from the NCI library (Natural Products V, NCI). For candidate validation and subsequent studies aggregates were cultured in basal chondrogenic media (10 ng/ml TGF-β1) alone, with DMSO (vehicle control) or compounds as indicated in the results. Aggregates were cultured for three weeks in physioxic conditions, culture medium was sampled and replaced three times a week with fresh medium. An OT-2 (Opentrons) python coded robotic pipette, programmed at an aspiration height of 2 mm from the bottom of the wells and aspiration rate of 40 μl/s was utilized for addition of compound, cell feeding, and media sampling for luciferase assay. After three weeks, cell aggregates were either fixed in neutral buffered formalin for histology or medium removed and aggregates frozen dry (−20° C.) for biochemical assays.
Luciferase Assay. Conditioned culture medium sampled from aggregates in 96-wells (20 μL/well) was assessed using a stabilized Gaussia Luciferase buffer mix (50 µl/well) for a final concentration of 0.09 M MES, 0.15M Ascorbic Acid, and 4.2 μM Coelenterazine in white 96-well plates. Luminescence was measured in a plate reader (25° C., relative light units (RLU), En Vision plate reader). An OT-2 (Opentrons) python coded robotic pipette was utilized for luciferase buffer addition to white plates (GreinerBio).

In the case of Promoline [Drug 84], the “AKT 1/2/3 phosphorylation at T308 and S473” value [1] is reported as “substantial decrease”, the “p53 S15, STAT3 Y705 phosphorylation and HSP 60” value [1] is reported as “less considerable decrease” and the “phosphorylation of CREB, EGFR, and eNOS” value [1] is reported as “modest increase”. For the same substance, the “anti-microbial activity against Plasmodium falciparum” value (Plasmodium falciparum) was “weak anti-microbial activity”, the cytotoxicity (HuCol2gLuc aggregates [2]; 10 μM) was “cytotoxicity” and the “resazurin fluorescence (metabolic activity)” value (HuCol2gLuc aggregates [2]; 0-10 μM) was “dose dependent decrease”. The “glycosaminoglycan (GAG) content” value (HuCol2gLuc aggregates [3]; day 22, donor 1) was “not statistically significant”, the total collagen (HuCol2gLuc aggregates [3]; day 22, donor 1) was “no observable effect” and the DNA content (HuCol2gLuc aggregates [3]; day 22, donor 2, vs untreated) was “no change in DNA content”. The “glycosaminoglycan (GAG) content” value (HuCol2gLuc aggregates [3]; day 22, donor 2, untreated 15 μg) was “decrease in GAG content”, the total collagen (HuCol2gLuc aggregates [3]; day 22, donor 2, untreated ~14 μg) was roughly 21 µg and the DNA content (HuCol2gLuc aggregates [3]; day 22, 10 μM) was “significant decrease”. The “cytotoxicity in the KB cell line” value (KB cell line) was “low cytotoxicity”, the inhibition of butyrylcholinesterase (butyrylcholinesterase) was “potent inhibitor” and the “stimulation of type II collagen production in the screen of natural products” value ([4]; listed as 84) was “stimulatory effects; also recorded: stimulatory throughout the experiment”. The “stimulation of type II collagen production in the screen of natural products” value ([4]; listed as Promoline) was “stimulate type II collagen”, the EC50 ([4]; cumulative luminescence over 22 days) was 3070 nM and the EC50 ([4]; day 3, 0-10 μM, read-out: EC50 type II collagen driven-luminescence) was 2460 nM. The EC50 ([4]; day 10, 0-10 μM, read-out: EC50 type II collagen driven-luminescence) was 2580 nM, the “stimulation of type II collagen production during the early stages” value ([4]; natural product screen, day 8 volcano plot) was “stimulate type II collagen production during the early stages” and the “day 22 luminescence normalized to DMSO vehicle control” value ([4]; screen, 5 μM, 1 ng/ml TGF-β1) was “significant increase in luminescence”. For the same substance, the “trend of luminescence over 22 days normalized to DMSO” value ([4]; screen, 5 μM, 1 ng/ml TGF-β1) was “increase over the control as early as day 3 with a sustained increase in expression over 22 days”, the cumulative luminescence ([4]; donor 1) was “no significant effect” and the cumulative luminescence ([4]; donor 2) was “significant increase”.
